In the NIST ThermoML archive (doi:10.1016/j.jct.2012.11.010):

Settings: Liquid; for viscosity: 101.33 kPa, Falling or rolling sphere viscometry; for mass density: Vibrating tube method

CCCCCCCCCCCCCC[P+](CCCCCC)(CCCCCC)CCCCCC.FC(F)(F)C(F)(F)[P-](F)(F)(F)(C(F)(F)C(F)(F)F)C(F)(F)C(F)(F)F
Settings | viscosity [mPa·s]
293.15 K | 470.83
303.15 K | 259.01
313.15 K | 155.29
323.15 K | 94.33
333.15 K | 65
343.15 K | 42.67
353.15 K | 30.35
363.15 K | 22.81
373.15 K | 17.53

Settings | mass density [kg/m3]
293.2 K, 100 kPa | 1185.7
293.21 K, 500 kPa | 1185.9
293.22 K, 1000 kPa | 1185.9
293.22 K, 2500 kPa | 1186.7
293.22 K, 5000 kPa | 1188.3
293.22 K, 10000 kPa | 1191.3
293.22 K, 25000 kPa | 1201.2
293.23 K, 15000 kPa | 1194.7
293.23 K, 20000 kPa | 1198
303.19 K, 100 kPa | 1177.4
303.19 K, 500 kPa | 1177.7
303.19 K, 1000 kPa | 1177.7
303.21 K, 2500 kPa | 1178.5
303.22 K, 5000 kPa | 1180.1
303.22 K, 10000 kPa | 1183.3
303.23 K, 15000 kPa | 1186.8
303.23 K, 20000 kPa | 1190.2
303.25 K, 25000 kPa | 1193.5
313.15 K, 100 kPa | 1169.1
313.17 K, 500 kPa | 1169.4
313.17 K, 1000 kPa | 1169.4
313.17 K, 2500 kPa | 1170.3
313.17 K, 5000 kPa | 1172
313.17 K, 10000 kPa | 1175.4
313.17 K, 15000 kPa | 1179.1
313.17 K, 20000 kPa | 1182.6
313.17 K, 25000 kPa | 1186
323.14 K, 15000 kPa | 1171.1
323.15 K, 500 kPa | 1161
323.15 K, 1000 kPa | 1161.1
323.15 K, 5000 kPa | 1163.8
323.15 K, 10000 kPa | 1167.3
323.15 K, 20000 kPa | 1174.7
323.16 K, 100 kPa | 1160.6
323.16 K, 2500 kPa | 1162
323.16 K, 25000 kPa | 1178.3
333.11 K, 100 kPa | 1152.6
333.12 K, 500 kPa | 1152.9
333.12 K, 1000 kPa | 1153
333.12 K, 2500 kPa | 1154
333.12 K, 10000 kPa | 1159.5
333.13 K, 5000 kPa | 1156.8
333.13 K, 15000 kPa | 1163.4
333.13 K, 25000 kPa | 1171
333.14 K, 20000 kPa | 1167.2
343.07 K, 500 kPa | 1145
343.07 K, 1000 kPa | 1145.1
343.08 K, 2500 kPa | 1146.1
343.08 K, 10000 kPa | 1151.9
343.08 K, 15000 kPa | 1156
343.09 K, 5000 kPa | 1148.1
343.09 K, 25000 kPa | 1163.7
343.1 K, 20000 kPa | 1159.9
343.13 K, 100 kPa | 1144.5
353.2 K, 100 kPa | 1136.5
353.22 K, 500 kPa | 1137
353.22 K, 2500 kPa | 1138.2
353.22 K, 5000 kPa | 1140.2
353.23 K, 1000 kPa | 1137.1
353.23 K, 10000 kPa | 1144.2
353.23 K, 15000 kPa | 1148.4
353.25 K, 20000 kPa | 1152.5
353.25 K, 25000 kPa | 1156.4

CCCC[N+]1(C)CCCC1.FC(F)(F)C(F)(F)[P-](F)(F)(F)(C(F)(F)C(F)(F)F)C(F)(F)C(F)(F)F
Settings | viscosity [mPa·s]
293.15 K | 333.79
303.15 K | 179.86
313.15 K | 106
323.15 K | 68.08
333.15 K | 45.37
343.15 K | 31.9
353.15 K | 23.42
363.15 K | 17.58
373.15 K | 13.71

Settings | mass density [kg/m3]
293.17 K, 5000 kPa | 1606.7
293.17 K, 10000 kPa | 1610.2
293.17 K, 15000 kPa | 1614.1
293.17 K, 20000 kPa | 1618
293.17 K, 25000 kPa | 1621.7
293.18 K, 2500 kPa | 1604.9
293.19 K, 100 kPa | 1603.7
293.19 K, 500 kPa | 1604
293.19 K, 1000 kPa | 1603.9
303.18 K, 100 kPa | 1592.8
303.19 K, 1000 kPa | 1593.1
303.2 K, 500 kPa | 1593.1
303.25 K, 10000 kPa | 1599.5
303.25 K, 20000 kPa | 1607.6
303.25 K, 25000 kPa | 1611.4
303.26 K, 2500 kPa | 1593.9
303.26 K, 5000 kPa | 1595.8
303.26 K, 15000 kPa | 1603.6
313.19 K, 10000 kPa | 1589.1
313.2 K, 100 kPa | 1581.9
313.2 K, 500 kPa | 1582.3
313.2 K, 1000 kPa | 1582.3
313.2 K, 5000 kPa | 1585.3
313.2 K, 20000 kPa | 1597.4
313.21 K, 2500 kPa | 1583.3
313.21 K, 15000 kPa | 1593.3
313.21 K, 25000 kPa | 1601.4
323.14 K, 100 kPa | 1571
323.14 K, 500 kPa | 1571.4
323.14 K, 2500 kPa | 1572.5
323.14 K, 10000 kPa | 1578.5
323.14 K, 15000 kPa | 1582.9
323.14 K, 20000 kPa | 1587.2
323.14 K, 25000 kPa | 1591.3
323.15 K, 1000 kPa | 1571.5
323.15 K, 5000 kPa | 1574.6
333.17 K, 100 kPa | 1560.4
333.17 K, 500 kPa | 1560.8
333.17 K, 1000 kPa | 1560.9
333.17 K, 5000 kPa | 1564.2
333.18 K, 2500 kPa | 1562
333.18 K, 10000 kPa | 1568.2
333.18 K, 15000 kPa | 1572.7
333.18 K, 20000 kPa | 1577.2
333.18 K, 25000 kPa | 1581.4
343.16 K, 100 kPa | 1549.9
343.17 K, 500 kPa | 1550.4
343.18 K, 1000 kPa | 1550.5
343.19 K, 2500 kPa | 1551.6
343.2 K, 5000 kPa | 1553.9
343.2 K, 10000 kPa | 1558.1
343.2 K, 15000 kPa | 1562.8
343.2 K, 20000 kPa | 1567.4
343.21 K, 25000 kPa | 1571.7
353.17 K, 100 kPa | 1539.5
353.17 K, 500 kPa | 1540.1
353.17 K, 5000 kPa | 1543.8
353.18 K, 1000 kPa | 1540.3
353.18 K, 2500 kPa | 1541.4
353.18 K, 15000 kPa | 1553
353.19 K, 10000 kPa | 1548.2
353.19 K, 20000 kPa | 1557.7
353.19 K, 25000 kPa | 1562.2
